Columns and labels:
[1] = Competitive slurries of polymorphs (XRPD of product); format: physicochemical
Protocol: Form IV (10 mg) was placed in water (1 ml) with 10 mg of Form I and Form II and stirred overnight at ambient temperature. A second slurry was set up to also include a further polymorph. Mixtures were filtered under suction and dried in a vacuum oven (45° C.).
The same experimental procedure was applied to a slurry involving Forms I, II, III and IV. The initial test was performed in water and a second was carried out in ethyl acetate. […] This work supports previous conclusions that Form II is the dominant form.

[2] = Solubility in pure water of the polymorphs; conditions: 23° C.
Protocol: The solubility in pure water of samples of the different polymorphs was assessed at 23° C.

Form obtained from competitive slurry (XRPD) ([1]; Form IV with Form I and Form II, water, stirred overnight at ambient temperature): generated
Relative stability of forms concluded from competitive slurries ([1]; conclusion from competitive slurries): dominant form
Form obtained from competitive slurry (XRPD) ([1]; slurry of Forms I, II, III and IV, in water and in ethyl acetate): isolated
Solubility [2]: 5900 µg/mL
SMILES: Cc1occc(=O)c1[O-].Cc1occc(=O)c1[O-].Cc1occc(=O)c1[O-].[Fe+3] [Form II, ferric maltol]
